Measured values: ChEMBL document CHEMBL1201862, “PubChem BioAssay data set” (2004)
Activity calls are given as the source filed them.

What was measured:
[1] = system: INS1; test: beta cell apoptosis inhibitors, cytokine rescue, dose response, luminescence, retest (AID 449756); format: functional, cell-based; settings: Rattus norvegicus;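 further: cell death triggered by IL-1 beta plus TNF-alpha plus IFN-gamma mixture; protective hits raise ATP signal compared with cytokine alone wells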
[2] = biological target: T1, Replicative DNA helicase DnaB (Mycobacterium tuberculosis, UniProt P9WMR3); test: DnaB intein splicing inhibitors, dose response, biochemical, cell-free fluorescence (AID 449749); format: functional
T1 sequence (P9WMR3 whole entry): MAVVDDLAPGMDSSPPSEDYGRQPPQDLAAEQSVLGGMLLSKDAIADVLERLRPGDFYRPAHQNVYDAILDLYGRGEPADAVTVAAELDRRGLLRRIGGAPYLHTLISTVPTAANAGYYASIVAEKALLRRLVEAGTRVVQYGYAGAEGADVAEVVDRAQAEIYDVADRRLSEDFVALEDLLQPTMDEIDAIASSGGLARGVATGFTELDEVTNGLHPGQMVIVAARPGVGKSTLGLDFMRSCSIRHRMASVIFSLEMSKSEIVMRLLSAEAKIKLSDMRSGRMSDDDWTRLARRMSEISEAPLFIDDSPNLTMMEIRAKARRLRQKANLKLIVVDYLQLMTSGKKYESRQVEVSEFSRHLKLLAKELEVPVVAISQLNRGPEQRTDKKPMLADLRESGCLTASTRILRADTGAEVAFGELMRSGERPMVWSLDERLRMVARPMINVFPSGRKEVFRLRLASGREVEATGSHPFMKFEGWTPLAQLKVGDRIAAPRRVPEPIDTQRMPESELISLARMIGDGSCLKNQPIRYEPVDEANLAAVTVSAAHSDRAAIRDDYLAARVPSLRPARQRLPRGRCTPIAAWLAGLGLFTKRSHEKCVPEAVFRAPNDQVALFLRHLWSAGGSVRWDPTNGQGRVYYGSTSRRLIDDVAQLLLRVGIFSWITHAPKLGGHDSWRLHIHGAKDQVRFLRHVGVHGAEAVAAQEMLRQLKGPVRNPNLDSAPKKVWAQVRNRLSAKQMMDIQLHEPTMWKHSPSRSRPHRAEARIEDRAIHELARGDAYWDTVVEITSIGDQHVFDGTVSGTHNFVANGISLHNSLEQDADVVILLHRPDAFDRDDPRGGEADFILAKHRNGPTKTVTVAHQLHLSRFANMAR

[3] = biological target: T2, Sentrin-specific protease 7 (Homo sapiens, UniProt Q9BQF6); test: SENP7 protease inhibitors, SAR follow-up, biochemical, luminescence (AID 504497); format: functional
T2 sequence (Q9BQF6 whole entry): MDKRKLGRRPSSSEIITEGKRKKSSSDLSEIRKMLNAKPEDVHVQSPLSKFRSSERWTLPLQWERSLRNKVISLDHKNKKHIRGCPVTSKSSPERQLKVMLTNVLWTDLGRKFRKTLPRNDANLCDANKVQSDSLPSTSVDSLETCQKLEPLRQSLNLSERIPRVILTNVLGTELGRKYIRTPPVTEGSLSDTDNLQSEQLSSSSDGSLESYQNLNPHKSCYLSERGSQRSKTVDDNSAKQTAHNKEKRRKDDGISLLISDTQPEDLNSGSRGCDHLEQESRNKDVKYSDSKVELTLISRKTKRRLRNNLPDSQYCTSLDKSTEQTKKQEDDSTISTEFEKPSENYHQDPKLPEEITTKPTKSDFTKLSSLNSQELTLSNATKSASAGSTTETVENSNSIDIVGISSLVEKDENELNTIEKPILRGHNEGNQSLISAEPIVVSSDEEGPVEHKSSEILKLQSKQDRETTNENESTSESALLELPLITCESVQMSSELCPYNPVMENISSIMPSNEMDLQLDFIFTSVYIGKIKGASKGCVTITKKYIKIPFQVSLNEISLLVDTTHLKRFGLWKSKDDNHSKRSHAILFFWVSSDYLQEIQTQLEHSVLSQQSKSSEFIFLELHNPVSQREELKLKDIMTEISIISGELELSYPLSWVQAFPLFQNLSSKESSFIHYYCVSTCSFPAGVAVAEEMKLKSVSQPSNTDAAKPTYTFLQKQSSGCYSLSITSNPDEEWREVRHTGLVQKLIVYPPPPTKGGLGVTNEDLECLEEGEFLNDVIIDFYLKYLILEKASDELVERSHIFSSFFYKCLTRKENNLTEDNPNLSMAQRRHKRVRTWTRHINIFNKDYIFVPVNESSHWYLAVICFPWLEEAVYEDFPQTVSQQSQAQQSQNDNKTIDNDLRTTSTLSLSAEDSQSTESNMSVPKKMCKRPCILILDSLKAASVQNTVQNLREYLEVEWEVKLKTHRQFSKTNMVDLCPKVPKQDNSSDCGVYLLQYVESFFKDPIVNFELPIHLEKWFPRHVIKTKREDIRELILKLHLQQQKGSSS

[4] = biological target: SUMO-activating enzyme (Homo sapiens, UniProt Q9UBT2); test: SUMOylation inhibitor hit validation, confirmation, SUMOylation inhibitor project, biochemical, AlphaScreen (AID 2018); format: functional
[5] = biological target: Dual specificity protein kinase CLK2 (Homo sapiens, UniProt P49760); format: functional
[6] = biological target: Tyrosine-protein kinase JAK2 (Homo sapiens, UniProt O60674); format: functional;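 further: JAK2 tested as one member of a kinase panel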
[7] = biological target: Mitogen-activated protein kinase 8 (Homo sapiens, UniProt P45983); format: functional;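 further: value comes from one member of a kinome-wide kinase profiling panel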
[8] = biological target: Casein kinase I isoform alpha (Homo sapiens, UniProt P48729); format: functional
[9] = biological target: High affinity nerve growth factor receptor (Homo sapiens, UniProt P04629); format: functional;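 further: NTRK1 tested as one member of a kinome-wide profiling panel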
[10] = biological target: Activated CDC42 kinase 1 (Homo sapiens, UniProt Q07912); test: Navigating the Kinome. Panel member name: ACK1; format: functional
[11] = biological target: Mitogen-activated protein kinase 14 (Homo sapiens, UniProt Q16539); format: functional;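 further: part of a kinome-wide panel, MAPK14 entry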
[12] = biological target: Platelet-derived growth factor receptor beta (Homo sapiens, UniProt P09619); format: functional;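 further: value comes from a kinome panel, with PDGFRB tested as one panel member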
Platelet-derived growth factor receptor beta, sequence (P09619 whole entry): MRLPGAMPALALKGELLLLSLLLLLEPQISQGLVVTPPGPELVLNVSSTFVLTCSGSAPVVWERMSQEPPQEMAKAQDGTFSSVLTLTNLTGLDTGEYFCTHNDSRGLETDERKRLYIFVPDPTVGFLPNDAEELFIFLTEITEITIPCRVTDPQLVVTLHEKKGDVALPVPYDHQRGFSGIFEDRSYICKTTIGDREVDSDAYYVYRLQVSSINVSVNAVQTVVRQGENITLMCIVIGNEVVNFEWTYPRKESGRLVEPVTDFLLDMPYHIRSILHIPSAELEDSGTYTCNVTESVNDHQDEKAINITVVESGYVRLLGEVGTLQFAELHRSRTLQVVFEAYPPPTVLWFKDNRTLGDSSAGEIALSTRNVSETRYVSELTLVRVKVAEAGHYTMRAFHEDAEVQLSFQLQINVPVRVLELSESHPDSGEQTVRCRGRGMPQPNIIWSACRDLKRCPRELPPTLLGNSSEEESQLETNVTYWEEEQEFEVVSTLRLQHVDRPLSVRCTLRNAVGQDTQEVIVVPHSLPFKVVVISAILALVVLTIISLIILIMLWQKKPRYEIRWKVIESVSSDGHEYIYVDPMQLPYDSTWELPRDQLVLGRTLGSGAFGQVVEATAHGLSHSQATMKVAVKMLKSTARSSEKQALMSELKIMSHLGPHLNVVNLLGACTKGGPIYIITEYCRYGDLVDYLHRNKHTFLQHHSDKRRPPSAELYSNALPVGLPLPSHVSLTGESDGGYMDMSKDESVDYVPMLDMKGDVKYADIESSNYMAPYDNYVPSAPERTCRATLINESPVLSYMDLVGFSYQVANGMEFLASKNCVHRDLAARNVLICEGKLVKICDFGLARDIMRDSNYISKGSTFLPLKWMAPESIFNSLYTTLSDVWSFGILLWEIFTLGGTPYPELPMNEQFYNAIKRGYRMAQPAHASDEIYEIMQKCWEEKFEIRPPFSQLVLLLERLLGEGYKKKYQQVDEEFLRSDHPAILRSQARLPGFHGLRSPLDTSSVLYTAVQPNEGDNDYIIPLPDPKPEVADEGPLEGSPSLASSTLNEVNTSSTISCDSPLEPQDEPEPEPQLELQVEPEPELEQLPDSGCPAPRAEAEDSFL

Mitogen-activated protein kinase 8, sequence (P45983 whole entry, canonical isoform): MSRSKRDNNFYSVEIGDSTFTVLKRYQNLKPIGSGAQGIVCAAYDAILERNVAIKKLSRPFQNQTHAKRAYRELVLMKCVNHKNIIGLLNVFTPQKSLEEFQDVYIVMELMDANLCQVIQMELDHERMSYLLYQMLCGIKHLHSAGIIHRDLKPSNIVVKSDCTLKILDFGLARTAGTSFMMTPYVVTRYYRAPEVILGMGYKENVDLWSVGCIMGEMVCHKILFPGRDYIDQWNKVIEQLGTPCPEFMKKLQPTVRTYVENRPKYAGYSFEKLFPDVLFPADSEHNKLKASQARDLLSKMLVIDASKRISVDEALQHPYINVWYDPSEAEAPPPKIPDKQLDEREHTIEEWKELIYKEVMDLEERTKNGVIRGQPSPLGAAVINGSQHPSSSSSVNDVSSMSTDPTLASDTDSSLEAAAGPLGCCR
High affinity nerve growth factor receptor, sequence (P04629 whole entry): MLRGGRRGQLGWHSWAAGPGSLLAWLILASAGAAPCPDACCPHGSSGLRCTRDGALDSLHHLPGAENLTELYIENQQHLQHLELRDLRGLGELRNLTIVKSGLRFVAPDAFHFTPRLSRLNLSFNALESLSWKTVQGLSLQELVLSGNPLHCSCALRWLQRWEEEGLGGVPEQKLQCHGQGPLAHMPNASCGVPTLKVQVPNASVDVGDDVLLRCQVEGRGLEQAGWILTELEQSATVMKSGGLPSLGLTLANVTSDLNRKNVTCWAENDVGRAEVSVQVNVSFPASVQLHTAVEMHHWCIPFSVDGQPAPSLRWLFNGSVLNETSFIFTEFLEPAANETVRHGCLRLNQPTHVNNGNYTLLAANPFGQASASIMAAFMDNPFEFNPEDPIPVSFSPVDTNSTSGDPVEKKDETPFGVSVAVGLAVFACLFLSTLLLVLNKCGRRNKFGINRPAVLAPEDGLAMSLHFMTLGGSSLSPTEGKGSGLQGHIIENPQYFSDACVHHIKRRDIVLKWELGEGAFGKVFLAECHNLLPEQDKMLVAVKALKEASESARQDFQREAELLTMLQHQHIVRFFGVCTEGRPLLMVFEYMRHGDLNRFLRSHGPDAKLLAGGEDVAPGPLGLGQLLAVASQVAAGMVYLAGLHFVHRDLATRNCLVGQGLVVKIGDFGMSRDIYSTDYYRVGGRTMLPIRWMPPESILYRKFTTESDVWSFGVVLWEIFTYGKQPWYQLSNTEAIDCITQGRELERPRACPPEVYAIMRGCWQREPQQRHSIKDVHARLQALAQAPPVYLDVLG
Dual specificity protein kinase CLK2, sequence (P49760 whole entry): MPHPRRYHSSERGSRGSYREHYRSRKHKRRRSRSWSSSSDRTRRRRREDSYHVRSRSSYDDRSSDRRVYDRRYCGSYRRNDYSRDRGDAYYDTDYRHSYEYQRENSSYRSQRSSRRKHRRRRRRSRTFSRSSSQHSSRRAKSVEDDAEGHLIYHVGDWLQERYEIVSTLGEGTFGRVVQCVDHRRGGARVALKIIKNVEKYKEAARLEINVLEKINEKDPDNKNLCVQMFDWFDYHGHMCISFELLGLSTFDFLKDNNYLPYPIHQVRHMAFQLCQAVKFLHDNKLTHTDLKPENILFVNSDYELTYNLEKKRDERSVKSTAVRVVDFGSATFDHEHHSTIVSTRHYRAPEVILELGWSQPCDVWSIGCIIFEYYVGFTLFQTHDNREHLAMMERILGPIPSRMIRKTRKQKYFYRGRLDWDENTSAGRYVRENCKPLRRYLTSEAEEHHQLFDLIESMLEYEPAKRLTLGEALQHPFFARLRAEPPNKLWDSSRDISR
Mitogen-activated protein kinase 14, sequence (Q16539 whole entry): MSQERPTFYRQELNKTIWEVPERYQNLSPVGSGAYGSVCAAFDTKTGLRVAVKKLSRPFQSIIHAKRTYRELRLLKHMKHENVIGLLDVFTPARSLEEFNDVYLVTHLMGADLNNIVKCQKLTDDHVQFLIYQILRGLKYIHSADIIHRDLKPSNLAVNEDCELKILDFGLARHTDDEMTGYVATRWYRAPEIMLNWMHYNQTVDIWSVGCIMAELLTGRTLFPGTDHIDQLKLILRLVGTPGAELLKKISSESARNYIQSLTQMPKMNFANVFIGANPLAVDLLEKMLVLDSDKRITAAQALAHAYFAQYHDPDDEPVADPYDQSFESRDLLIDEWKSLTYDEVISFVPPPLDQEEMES
Tyrosine-protein kinase JAK2, sequence (O60674 whole entry): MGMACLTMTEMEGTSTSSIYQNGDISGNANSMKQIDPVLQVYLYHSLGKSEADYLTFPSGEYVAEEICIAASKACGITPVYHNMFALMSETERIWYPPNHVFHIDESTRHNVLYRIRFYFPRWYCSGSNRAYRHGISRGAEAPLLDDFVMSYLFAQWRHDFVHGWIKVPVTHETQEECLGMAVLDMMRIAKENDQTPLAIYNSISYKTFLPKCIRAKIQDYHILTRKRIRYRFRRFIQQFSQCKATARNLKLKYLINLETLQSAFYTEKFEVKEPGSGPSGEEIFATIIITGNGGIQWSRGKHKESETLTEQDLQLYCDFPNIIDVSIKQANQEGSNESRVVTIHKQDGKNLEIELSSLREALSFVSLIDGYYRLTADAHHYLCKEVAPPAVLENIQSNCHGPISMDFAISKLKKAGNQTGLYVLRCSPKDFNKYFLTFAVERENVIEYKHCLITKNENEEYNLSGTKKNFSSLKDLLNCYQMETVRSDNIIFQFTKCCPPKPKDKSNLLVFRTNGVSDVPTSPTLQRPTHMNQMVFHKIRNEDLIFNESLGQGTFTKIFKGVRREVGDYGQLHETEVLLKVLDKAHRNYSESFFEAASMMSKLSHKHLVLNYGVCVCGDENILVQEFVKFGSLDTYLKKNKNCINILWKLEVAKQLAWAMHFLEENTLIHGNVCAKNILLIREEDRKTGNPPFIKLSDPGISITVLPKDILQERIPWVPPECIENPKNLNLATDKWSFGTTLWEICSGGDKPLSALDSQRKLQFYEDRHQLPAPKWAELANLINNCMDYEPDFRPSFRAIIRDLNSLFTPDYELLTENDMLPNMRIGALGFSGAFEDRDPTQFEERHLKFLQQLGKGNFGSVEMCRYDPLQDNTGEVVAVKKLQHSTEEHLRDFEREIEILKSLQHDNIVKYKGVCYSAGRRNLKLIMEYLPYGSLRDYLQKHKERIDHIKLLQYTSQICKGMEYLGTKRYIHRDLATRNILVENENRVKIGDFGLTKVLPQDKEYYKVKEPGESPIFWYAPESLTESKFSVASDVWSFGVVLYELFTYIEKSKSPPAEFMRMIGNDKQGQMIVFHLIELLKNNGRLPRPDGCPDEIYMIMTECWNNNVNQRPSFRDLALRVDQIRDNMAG
Casein kinase I isoform alpha, sequence (P48729 whole entry, canonical isoform): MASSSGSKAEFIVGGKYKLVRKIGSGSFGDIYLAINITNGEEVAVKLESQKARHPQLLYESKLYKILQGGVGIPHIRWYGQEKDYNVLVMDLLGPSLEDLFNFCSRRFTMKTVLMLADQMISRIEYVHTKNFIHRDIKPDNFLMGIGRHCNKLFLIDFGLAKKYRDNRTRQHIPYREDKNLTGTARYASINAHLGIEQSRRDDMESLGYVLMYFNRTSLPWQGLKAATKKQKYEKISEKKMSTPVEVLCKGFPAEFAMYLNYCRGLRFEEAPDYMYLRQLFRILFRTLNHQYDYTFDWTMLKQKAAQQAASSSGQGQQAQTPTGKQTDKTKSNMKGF

CCN(CC)CCOc1ccc2c(c1)C(=NNC(=O)c1ccccn1)c1cc(OCCN(CC)CC)ccc1-2
AC50 [1]: 2970 nM (active)

O=C(NC1=C(Nc2ccc(F)cc2)C(=O)c2ccccc2C1=O)c1ccc(Cl)cc1
AC50 [2]: 11800 nM (active)
AC50 [1]: 5260 nM (active)

COc1cc2cc(NC(C)=O)cc(NCc3ccccc3)c2cc1OC
IC50 [3]: 67600 nM (active)

Oc1nc(Nc2ccc(F)cc2)cc2ccccc12
IC50 [4]: 1120 nM (active)

CN(C)c1cc(N/N=C\c2ccccc2)nc(N(C)C)n1
IC50 [4]: 1600 nM (active)
IC50 [3]: 16200 nM (active)

O=C1Nc2cc(-c3ccc(O)cc3)ccc2C1=Cc1ccc[nH]1
Ki [5]: > 3980 nM (inactive)
Ki [6]: 5.01 nM (active)
Ki [7]: > 5010 nM (inactive)
Ki [8]: > 3980 nM (inactive)
Ki [9]: 2000 nM (active)
Ki [10]: > 3980 nM (inactive)
Ki [11]: 2510 nM (active)

NC(COc1cncc(-c2ccc3c(c2)C(=Cc2ccc[nH]2)C(=O)N3)c1)Cc1ccccc1 (stereo not drawn)
Ki [5]: 0.794 nM (active)
Ki [6]: 63.1 nM (active)
Ki [7]: 1260 nM (active)
Ki [8]: 2000 nM (active)
Ki [9]: 63.1 nM (active)
Ki [10]: 1580 nM (active)
Ki [12]: 3.16 nM (active)
Ki [11]: 631 nM (active)

O=C1Cc2cc(-c3ccccc3)cnc2N1
Ki [12]: 50100 nM (active)
